Values quoted from earlier work as cited in patent US20170058346A1, “Methods Employing Non-Coding RNA Expression Assays” (SISTEMIC SCOTLAND LIMITED, priority 2009, published 2017).

System: HDAC
Conditions: from a literature review

In the case of `C[S+](C)[O-]` [DMSO, dimethyl sulphoxide], the HDAC inhibitor activity is given as “shown to be an HDAC inhibitor”.
